Columns and labels:
AtTTM2 = test: Quantitative real-time PCR of AtTTM2 expression after SA, BTH or flg22 treatment; assay type: in vivo, Arabidopsis thaliana
Method: (§1) Arabidopsis (Arabidopsis thaliana accession Columbia), canola (Brassica napus var. Westar), and soybean (Glycine max var. Harasoy) plants were grown in Sunshine Mix at 22° C., 60% relative humidity (RH), and ˜140 μE m^−2 s^−1 with a 9h-photoperiod. 7-10 day-old Arabidopsis plants were infected with Hyaloperonospora arabidopsidis (Hpa). Spore counts of 1×10^5 conidiospores ml^−1, 8×10^5 cells ml^−1, and 2×10^5 cells ml^−1 were used for Noco2, Emco5, and Emwa1 isolates, respectively. Seedlings were then infected via drop inoculation and left at 16° C., >90% RH for 7-10 days before disease assessment. 4-week-old plants were infiltrated with 1×10^5 CFU ml^−1 of the bacterial pathogen, Pseudomonas syringae tomato DC3000 (AvrRps4) and bacterial growth was assessed at 0 and 3 days post infiltration.
(§2) RNA extraction was carried out using the TRIzol reagent (Life Technologies, Carlsbad, Calif.), according to the manufacturer's instructions. Reverse transcriptase (RT)-PCR was performed using cDNA generated by SuperScript II Reverse Transcriptase (Life Technologies, Carlsbad, Calif.) according to the manufacturer's instructions. Expression of PR1 was visualized by gel electrophoresis of samples after RT-PCR with PR1 primers (AtPR1-F, AtPR1-R).
(§3) Quantitative real-time PCR was performed using Fast SYBR Green Master Mix (Life Technologies, Carlsbad, Calif.). […]

PR1 = test: Quantitative real-time PCR of PR1 gene expression after SA or BTH treatment; assay type: in vivo, Arabidopsis thaliana; settings: Col wild type
Method: as §1, §2, §3

BnTTM2a, BnTTM2b = test: qPCR of TTM2 orthologues in canola after BTH treatment; assay type: in vivo, Brassica napus; settings: canola var. Westar, 200 μM BTH, 48hrs
Method: as §1
(§4) Quantitative real-time PCR was performed using Fast SYBR Green Master Mix (Life Technologies, Carlsbad, Calif.). The expression of Arabidopsis genes were normalized to the expression of AtEF1A (elongation factor1-alpha) while the expression of soybean and canola genes were normalized to GmEF1B (elongation factor1-beta) and BnUBC21 (ubiquitin conjugating enzyme21), respectively.
(§5) 7- to 10-day old Arabidopsis seedlings were treated with 100 μM SA or 200 μM BTH. […]

GmTTM2a/b = test: qPCR of TTM2 orthologues in soybean after BTH treatment; assay type: in vivo, Glycine max; settings: soybean var. Harasoy, 200 μM BTH, 48hrs
Method: as §1, §4, §5

SITTM2A and B = test: Expression of TTM2 in tomato after BTH treatment; assay type: in vivo, Solanum lycopersicum; settings: 4-5 week old tomato, 200 μM BTH, 48 hours
Method: (§6) Tomato, Cucumber, Pepper and Petunia plants for BTH treatment were grown in Sunshine Mix at 22° C., 60% relative humidity, and approximately 140 uE m^−2 s^−1 with a 9-h photoperiod. Rice and Brachypodium distachyon plants for BTH treatment were grown in Rice Mix. tomato plants for Pseudomonas infection were grown in Sunshine Mix, at 22° C. 60% relative humidity, and natural light condition.
FIG. 23 illustrates expression of SITTM2A and B in approximately 4-5 week old tomato (Solanum lycopersicum) 48 hours after with and without BTH (200 μM) treatment. Solution was sprayed with the addition of 0.025% (v/v) Silwet. Expression of both genes was suppressed similar to Arabidopsis TTM2.

CsTTM2 = test: Expression of TTM2 in cucumber after BTH treatment; assay type: in vivo, Cucumis sativus; settings: 4-5 week old cucumber, 200 uM BTH, 48 hours
Method: as §6
FIG. 24a illustrates expression of CsTTM2 in approximately 4-5 week old cucumber (Cucumis sativus) 48 hours after BTH (200 uM) treatment. Solution was sprayed with the addition of 0.025% (v/v) Silwet. Expression of the gene was suppressed similar to Arabidopsis TTM2.

CaTTM2 = test: Expression of TTM2 in pepper after BTH treatment; assay type: in vivo, Capsicum annuum; settings: 4-5 week old pepper, 200 uM BTH, 48 hours
Method: as §6
FIG. 24b illustrates expression of CaTTM2 in approximately 4-5 week old pepper (Capsicum annuum) 48 hours after BTH (200 uM) treatment. Solution was sprayed with the addition of 0.025% (v/v) Silwet. Expression of the gene was suppressed similar to Arabidopsis TTM2.

PhTTM2A and B = test: Expression of TTM2 in Petunia after BTH treatment; assay type: in vivo, Petunia hybrida; settings: 4-5 week old Petunia, 200 uM BTH, 48 hours
Method: as §6
FIG. 25 illustrates expression of PhTTM2A and B in approximately 4-5 week old Petunia (Petunia hybrida) 48 hours after BTH (200 uM) treatment. Solution was sprayed with the addition of 0.025% (v/v) Silwet. Expression of both genes was suppressed similar to Arabidopsis TTM2.

OsTTM2 = test: Expression of TTM2 in rice after BTH treatment; assay type: in vivo, Oryza sativa; settings: 4 week old rice, 200 uM BTH, 48 hours
Method: as §6
(§7) FIG. 26 illustrates expression of OsTTM2 in 4 week old rice (Oryza sativa) plant and BdTTM2 in the model monocotyledonous plant Brachypodium distachyon 48 hours after BTH (200 uM) treatment. Solution was sprayed with the addition of 0.025% (v/v) Silwet. Expression of both genes was suppressed similar to Arabidopsis TTM2.

BdTTM2 = test: Expression of TTM2 in Brachypodium distachyon after BTH treatment; assay type: in vivo; settings: 200 uM BTH, 48 hours
Method: as §6, §7

SMILES | AtTTM2 down-regulation after BTH treatment (AtTTM2; Col wild type, 200 μM BTH, 48h) | PR1 gene expression after BTH treatment (PR1; 200 μM BTH, 48h) | Expression of BnTTM2a, BnTTM2b in response to BTH (BnTTM2a, BnTTM2b) | Expression of GmTTM2a/b in response to BTH (GmTTM2a/b) | Expression of SITTM2A and B after BTH treatment (SITTM2A and B) | Expression of CsTTM2 after BTH treatment (CsTTM2) | Expression of CaTTM2 after BTH treatment (CaTTM2) | Expression of PhTTM2A and B after BTH treatment (PhTTM2A and B) | Expression of OsTTM2 after BTH treatment (OsTTM2) | Expression of BdTTM2 after BTH treatment (BdTTM2) | AtTTM2 down-regulation after SA treatment (AtTTM2; Col wild type plants sprayed with 100 μM SA, 24h) | PR1 gene expression after SA treatment (PR1; 100 μM SA, 24h)
c1ccc2snnc2c1 [BTH, benzothiadiazole] | down-regulation was also observed | increase in PR1 gene expression | similarly down-regulated | similarly down-regulated | suppressed | suppressed | suppressed | suppressed | suppressed | suppressed |  | 
O=C(O)c1ccccc1O [SA, salicylic acid] |  |  |  |  |  |  |  |  |  |  | more than 2 fold | increase in PR1 gene expression
